{"source": "patent US20200216906A1", "about": "“METHODS AND COMPOSITIONS RELATING TO THE DIAGNOSIS AND TREATMENT OF CANCER” (PRESIDENT AND FELLOWS OF HARVARD COLLEGE, priority 2015, published 2020)", "key": {"[1]": {"system": "pancreatic cancer cell lines", "assay": "Kinetic cell growth assay, panel of pancreatic cancer cell lines", "type": "cell-based, human", "conditions": "low density growth conditions (Hippo-Off); read-out: EC50 on pancreatic cancer cell growth", "protocol": "(§1) The effect of gemcitabine on pancreatic cancer cell growth was studied using a kinetic cell growth assay. Pancreatic cancer cells were plated on 96-well plates (Essen ImageLock, Essen Instruments, MI, US) at varying densities (2-4×10^3 for low density or 15-20×10^3 for high density experiments). Small molecule inhibitors at different doses were added 24 hours after plating and cell confluence was monitored with Incucyte Live-Cell Imaging System and software (Essen Instruments). Confluence was observed every hour for 48-144h or until the control (DMSO only) samples reached 100% confluence.\nFIG. 20A illustrates the kinetic cell growth assay to determine the effect of gemcitabine in a panel of pancreatic cancer cell lines. Cells are plated at low crowding conditions (10-25% confluence) and 24 hours later exposed to gemcitabine in a dose-dependent manner. They are imaged every 1-3 hours until control (vehicle) treated cells reach 100% confluence. This assay is not confounded by the fact that the time required for each cell line to reach 100% confluence may be very different (as the cell lines have different doubling times). A dose response effect of gemcitabine on cell growth for 16 pancreatic cancer cell lines is shown in FIGS. 20B, 3, 31A-31C and 28, where the range of previous studies is also shown. […] Similar responses to gemcitabine were found in liver cancer cell lines (Huh7 and FOCUS) and untransformed (HEK293) cell lines (FIGS. 3, 31A-31C).\nas §1, with “Kinetic Cell growth assay. The” for “The”, “(2-4X103” for “(2-4×10^3”, “15-20X103” for “15-20×10^3”, “Incucyte™” for “Incucyte”"}, "[2]": {"system": "Panc02.13 cells with NF2 depletion", "assay": "High-density spheroid assay, NF2-depleted Panc02.13 cells", "type": "cell-based, human", "description": "In cells at low cell density, where YAP is localized to the nucleus, presumably YAP dependent transcription is turned on. At high density, YAP is in the cytoplasm, transcription is blocked and resistance to gemcitabine is high. Given these correlations it was asked whether inactivation of Hippo pathway could restore gemcitabine sensitivity in crowded conditions. Expression of a non-phosphorylatable form of YAP (YAPS6A) in Panc02.13 pancreatic cancer cells causes constitutive nuclear localization of exogenous YAP even at high crowding (data not shown)."}, "CDA": {"system": "CDA", "assay": "CDA expression after verteporfin treatment", "type": "cell-based, human", "conditions": "verteporfin treatment of Panc02.13 cells, p<0.05", "protocol": "Cells were serum-starved for 24 h and total cellular RNA was isolated using an RNeasy™ Mini Kit (QIAGEN, Santa Clara, Calif.). mRNA levels for the EMT-related genes were determined using the RT^2 Profiler™ qPCR array (SA Biosciences Corporation, Frederick, Md.). Briefly, 1 μg of total RNA was reverse transcribed into first strand cDNA using an RT^2 First Strand™ Kit (SA Biosciences). The resulting cDNA was subjected to qPCR using human gene-specific primers for 75 different genes, and five housekeeping genes (B2M, HPRT1, RPL13A, GAPDH, and ACTB). The qPCR reaction was performed with an initial denaturation step of 10 min at 95° C., followed by 15 s at 95° C. and 60 s at 60° C. for 40 cycles using an Mx3000P™ QPCR system (Stratagene, La Jolla, Calif.).\nThe activity of the Hippo pathway not only affected the efflux of gemcitabine but also its major metabolite, dFdU (FIG. 22B).\nRNA extraction and quantitative real-time PCR. Cells were serum-starved for 24 h and total cellular RNA was isolated using an RNeasy Mini Kit (QIAGEN, Santa Clara, Calif.). mRNA levels for the EMT-related genes were determined using the RT2 Profiler™ qPCR array (SA Biosciences Corporation, Frederick, Md.). Briefly, 1 μg of total RNA was reverse transcribed into first strand cDNA using an RT2 First Strand Kit (SA Biosciences). […]"}, "Panc02.13 cells": {"system": "Panc02.13 cells", "assay": "3D spheroid growth assay, Panc02.13 (GFP/parental) cells", "conditions": "read-out: EC50 in 3D-spheroid assays; 3D-spheroid (Hippo-on)", "procedure": "Cancer cell lines were seeded at a 5×10^3 cells per well in a 96-well ultra-low adherence plates (Costar) and briefly spun down at 1000 rpm for 5 minutes. After 2 days, cells were treated with small molecule inhibitors at varying concentrations. Growth of spheroids was monitored using live cell imaging every 2-3 hours for 4-7 days in the Incucyte FLR™ system (Essen) or as end point assay using CellTiter-Glo™ luminescent cell viability assay (Promega).\nA dose response curve for each inhibitor is calculated based on control (no inhibitor/DMSO) treated wells.\nCancer cell lines were seeded at a 5×10^3 cells per well in a 96-well ultra-low adherence plates (Costar) and briefly spun down at 1000 rpm for 5 minutes. After 2 days, cells were treated with small molecule inhibitors at varying concentrations. Growth of spheroids was monitored using live cell imaging every 2-3 hours for 4-7 days in the Incucyte ZOOM™ system (Essen) or as end point assay using CellTiter-Glo™ luminescent cell viability assay (Promega)."}, "[3]": {"system": "Panc02.13 cells expressing YAPS6A", "assay": "Gemcitabine and dFdU efflux by LC-MS/MS, Panc02.13 YAPS6A vs GFP", "type": "in vitro ADME, human", "conditions": "less efflux in YAPS6A after gemcitabine treatment, p<0.05", "description": "It was considered whether the Hippo pathway might affect the efflux of gemcitabine and/or its metabolites. To assess directly gemcitabine efflux in conditioned media of pancreatic cancer cells both radiolabeled gemcitabine and LC-MS/MS-based methods were used. Panc02.13 cells grown in highly crowded conditions (Hippo-ON) pumped out 2-3-fold more radiolabeled gemcitabine (counts per μg protein) compared with cells grown in less crowded conditions (Hippo-OFF) (FIG. 22A). Another pathway of inactivation and export is the enzymatic conversion of gemcitabine to a uracil derivative (2′,2′-difluorodeoxyuridine, dFdU) by deamination catalyzed by cytidine deaminase (CDA)(Veltkamp et al., 2008). The efflux of gemcitabine and its deaminated metabolite, dFdU was measured by LC-MS/MS (24) in Panc02.13 cells expressing YAPS6A or vector control after gemcitabine treatment (FIG. 22B)."}, "H2052 (LATS2) cells": {"system": "H2052 (LATS2) cells", "assay": "Gemcitabine and dFdU efflux by LC-MS/MS, H2052 cells", "type": "in vitro ADME", "conditions": "higher in H2052 (LATS2)", "description": "Are defects in the Hippo pathway the major cause of gemcitabine sensitivity? […] Restoring the levels of LATS2 in H2052 cells caused an increase in the mRNA and proteins levels of ABCG2 and CDA (FIGS. 23C, 36A-36M)."}, "[4]": {"system": "Miapaca2-YAPS6A xenografts", "assay": "Mouse xenograft, Miapaca2-YAPS6A", "type": "in vivo", "conditions": "LC-MS/MS, p<0.01", "protocol": "To assess the gemcitabine response to Hippo pathway inactivation in tumors a mouse xenograft model of pancreatic carcinoma cells and patient-derived xenograft (PDX) models from a variety of solid tumors including human cancers from non-small cell lung, esophagus, breast, mesothelium, ovary, colon, head and neck, sarcoma, and cholangiocarcinoma were used (FIG. 30). In mouse xenograft studies, two human pancreatic cancer cell lines (Miapac2 and Panc02.13) expressing GFP or YAPS6A were injected into athymic mice. Both parental or GFP expressing cells grew rapidly, producing palpable tumors in 5-10 days. When the tumors were ˜200 mm^3 (as measured using a caliper), mice were randomized into treatment and control groups. The […] received i.p. saline injections on alternate days for two weeks, and the latter received gemcitabine (20 mg/kg in Miapaca2-YAPS6A and 50 mg/Kg in Panc02.13-YAPS6A cohorts).\nTumorigenicity in Nude Mice. All in vivo experiments were performed using 6-week-old to 8-week-old athymic nude mice. Mice were maintained in laminar flow rooms with constant temperature and humidity. Miapaca2 or Panc02.13 cells were inoculated subcutaneously (s.c.) into each flank of the mice. Cells (2×10^6 in suspension) were injected on day 0, and tumor growth was followed every 2 to 3 days by tumor diameter measurements using vernier calipers. Tumor volumes (V) were calculated using the formula: V=AB2/2 (A, axial diameter; B, rotational diameter). When the outgrowths were • 200 mm^3, mice were divided at random into two groups (control and treated, n=3-8). The treated group received gemcitabine injection or saline control on alternate days (MWF) for 2 weeks.\nIntra-tumor gemcitabine measurements."}}, "note": "pEC50: −log10 of the molar value.", "data": [{"compound": "verteporfin", "values": [{"measurement": "pEC50", "setting": "[1]", "result": "> 6.30"}, {"measurement": "Sensitivity after NF2 depletion", "setting": "[2]", "result": "restored sensitivity"}, {"measurement": "Increase in CDA levels", "setting": "CDA", "result": 3, "unit": "fold"}, {"measurement": "pEC50", "setting": "Panc02.13 cells", "result": "< 5.30"}]}, {"compound": "O=c1ccn([C@@H]2O[C@H](CO)[C@@H](O)C2(F)F)c(=O)[nH]1", "note": "[dFdU, 2′,2′-difluorodeoxyuridine]", "values": [{"measurement": "dFdU effluxed, YAPS6A vs GFP expressing cells", "setting": "[3]", "result": 5, "unit": "fold"}, {"measurement": "Effluxed dFdU in media, H2052 (LATS2) vs parental H2052 (LATS2−/−)", "setting": "H2052 (LATS2) cells", "result": "2-3 fold"}, {"measurement": "Reduction in intra-tumor accumulation of dFdU vs parental control xenografts", "setting": "[4]", "result": "> 4", "unit": "fold"}]}]}
